In patent US9096599B2, “Spiroindoline compounds” (Intervet Inc., priority 2011, dated 2015):
Like-named read-outs stand apart in the source and are kept apart here.

System: Ascaridia galli (L3) and Oesophagostumum dentatum (L3 and L4) larvae
Test: In vitro anthelmintic larval test, minimum effective concentration by microscopic examination
Format: cell-based
Details: read-out: minimum effective concentration (MEC)
Description: C: Biological Examples Efficacy Against Ascaridia galli and Oesophagostomum dentatum
Anthelmintic effects of compounds of this invention (numbers refer to compound numbers in Table I) were tested in vitro using gut-welling larval stages of two parasitic nematode species: Ascaridia galli (intestinal roundworm of chicken), larval stage 3 (“L3”); and Oesophagostumum dentatum (nodular worm of swine), larval stages 3 and 4 (respectively “L3” and “L4”). When conducting these experiments, DMSO-solutions of various concentrations of compounds of this invention were prepared and incubated in 96-well microtiter plates. The parasites were then distributed at 20 larvae per well. The anthelmintic effects were classified by microscopic examination. The microscopic examination included assessing mortality, damage, motility, progression of development, and neutral red uptake by the larvae in comparison to a DMSO-control.

[1] = activity against one or both of the nematodes (A. galli L3; O. dentatum L3, L4), 96-well plates, 20 larvae per well, vs DMSO-control

Compound	minimal effective concentration [1]	minimal effective concentration
Cc1ccc(/C=C/CN2CCC3(CC2)CN(C(=O)c2cc(C)nc(Cl)c2)c2ccc(Sc4ccc(F)cc4)cc23)c(C)c1 [Compound 21, (2-chloro-6-methyl-4-pyridyl)-[1′-[(E)-3-(2,4-dimethylphenyl)allyl]-5-(4-fluorophenyl)sulfanyl-spiro[indoline-3,4′-piperidine]-1-yl]methanone]	≤ 50 µM	
Cc1cc(C(=O)N2CC3(CCN(C/C=C/c4ccc(C)c(C)c4)CC3)c3cc(Sc4ccc(F)cc4)ccc32)ccn1 [Compound 16, [1′-[(E)-3-(3,4-dimethylphenyl)allyl]-5-(4-fluorophenyl)sulfanyl-spiro[indoline-3,4′-piperidine]-1-yl]-(2-methyl-4-pyridyl)methanone]	≤ 50 µM	
Cc1ccc(/C=C/CN2CCC3(CC2)CN(C(=O)c2ccnc(Cl)c2)c2ccc(Sc4ccc(F)cc4)cc23)cc1C [Compound 14, (2-chloro-4-pyridyl)-[1′-[(E)-3-(3,4-dimethylphenyl)allyl]-5-(4-fluorophenyl)sulfanyl-spiro[indoline-3,4′-piperidine]-1-yl]methanone]	≤ 50 µM	
Cc1cc(C(=O)N2CC3(CCN(C/C=C/c4ccc(C)c(C)c4)CC3)c3cc(Sc4ccc(F)cc4)ccc32)cc(Cl)n1 [Compound 15, (2-chloro-6-methyl-4-pyridyl)-[1′-[(E)-3-(3,4-dimethylphenyl)allyl]-5-(4-fluorophenyl)sulfanyl-spiro[indoline-3,4′-piperidine]-1-yl]methanone]	≤ 50 µM	
Cc1cc(C(=O)N2CC3(CCN(C/C=C/c4ccc(Cl)cc4Cl)CC3)c3cc(Sc4ccc(F)cc4)ccc32)cc(Cl)n1 [Compound 30, (2-chloro-6-methyl-4-pyridyl)-[1′-[(E)-3-(2,4-dichlorophenyl)allyl]-5-(4-fluorophenyl)sulfanyl-spiro[indoline-3,4′-piperidine]-1-yl]methanone]	≤ 50 µM	
Cc1cc(C(=O)N2CC3(CCN(C/C=C/c4ccc(F)cc4F)CC3)c3cc(Sc4ccc(F)cc4)ccc32)ccn1 [Compound 40, [1′-[(E)-3-(2,4-difluorophenyl)allyl]-5-(4-fluorophenyl)sulfanyl-spiro[indoline-3,4′-piperidine]-1-yl]-(2-methyl-4-pyridyl)methanone]	≤ 50 µM	
Cc1cc(C(=O)N2CC3(CCN(C/C=C/c4ccccc4)CC3)c3cc(Sc4ccc(F)cc4)ccc32)ccn1 [Compound 13, [1′-[(E)-cinnamyl]-5-(4-fluorophenyl)sulfanyl-spiro[indoline-3,4′-piperidine]-1-yl]-(2-methyl-4-pyridyl)methanone]		≤ 50 µM
O=C(c1ccnc(Cl)c1)N1CC2(CCN(C/C=C/c3ccc(F)cc3F)CC2)c2cc(Sc3ccc(F)cc3)ccc21 [Compound 38, (2-chloro-4-pyridyl)-[1′-[(E)-3-(2,4-difluorophenyl)allyl]-5-(4-fluorophenyl)sulfanyl-spiro[indoline-3,4′-piperidine]-1-yl]methanone]	≤ 50 µM	
Cc1cc(C(=O)N2CC3(CCN(C/C=C/c4ccc(Cl)c(Cl)c4)CC3)c3cc(Sc4ccc(F)cc4)ccc32)cc(Cl)n1 [Compound 24, (2-chloro-6-methyl-4-pyridyl)-[1′-[(E)-3-(3,4-dichlorophenyl)allyl]-5-(4-fluorophenyl)sulfanyl-spiro[indoline-3,4′-piperidine]-1-yl]methanone]	≤ 50 µM	
Cc1cc(C(=O)N2CC3(CCN(C/C=C/c4ccccc4)CC3)c3cc(Sc4ccc(F)cc4)ccc32)cc(Cl)n1 [Compound 12, (2-chloro-6-methyl-4-pyridyl)-[1′-[(E) -cinnamyl]-5-(4-fluorophenyl)sulfanyl-spiro[indoline-3,4′-piperidine]-1-yl]methanone]		≤ 50 µM
O=C(c1ccnc(Cl)c1)N1CC2(CCN(C/C=C/c3ccc(Cl)c(Cl)c3)CC2)c2cc(Sc3ccc(F)cc3)ccc21 [Compound 23, (2-chloro-4-pyridyl)-[1′-[(E)-3-(3,4-dichlorophenyl)allyl]-5-(4-fluorophenyl)sulfanyl-spiro[indoline-3,4′-piperidine]-1-yl]methanone]	≤ 50 µM	
O=C(c1ccnc(Cl)c1)N1CC2(CCN(C/C=C/c3ccc(F)c(F)c3)CC2)c2cc(Sc3ccc(F)cc3)ccc21 [Compound 32, (2-chloro-4-pyridyl)-[1′-[(E)-3-(3,4-difluorophenyl)allyl]-5-(4-fluorophenyl)sulfanyl-spiro[indoline-3,4′-piperidine]-1-yl]methanone]	≤ 50 µM	
Cc1cc(C(=O)N2CC3(CCN(C/C=C/c4ccc(Cl)cc4)CC3)c3cc(Sc4ccc(F)cc4)ccc32)ccn1 [Compound 28, [1′-[(E)-3-(4-chlorophenyl)allyl]-5-(4-fluorophenyl)sulfanyl-spiro[indoline-3,4′-piperidine]-1-yl]-(2-methyl-4-pyridyl)methanone]	≤ 50 µM	
Cc1cc(C(=O)N2CC3(CCN(C/C=C/c4ccc(F)c(F)c4)CC3)c3cc(Sc4ccc(F)cc4)ccc32)ccn1 [Compound 34, [1′-[(E)-3-(3,4-difluorophenyl)allyl]-5-(4-fluorophenyl)sulfanyl-spiro[indoline-3,4′-piperidine]-1-yl]-(2-methyl-4-pyridyl)methanone]	≤ 50 µM	
Cc1ccc(/C=C/CN2CCC3(CC2)CN(C(=O)c2cc(C)nc(Cl)c2)c2ccc(Sc4ccc(F)cc4)cc23)cc1 [Compound 18, (2-chloro-6-methyl-4-pyridyl)-[5-(4-fluorophenyl)sulfanyl-1′-[(E)-3-(p-tolyl)allyl]spiro[indoline-3,4′-piperidine]-1-yl]methanone]	≤ 50 µM	
O=C(c1ccnc(Cl)c1)N1CC2(CCN(C/C=C/c3ccccc3)CC2)c2cc(Sc3ccc(F)cc3)ccc21 [Compound 11, (2-chloro-4-pyridyl)-[1′-[(E)-cinnamyl]-5-(4-fluorophenyl)sulfanyl-spiro[indoline-3,4′-piperidine]-1-yl]methanone]		≤ 50 µM
Cc1cc(C(=O)N2CC3(CCN(C/C=C/c4ccc(F)cc4F)CC3)c3cc(Sc4ccc(F)cc4)ccc32)cc(Cl)n1 [Compound 39, (2-chloro-6-methyl-4-pyridyl)-[1′-[(E)-3-(2,4-difluorophenyl)allyl]-5-(4-fluorophenyl)sulfanyl-spiro[indoline-3,4′-piperidine]-1-yl]methanone]	≤ 50 µM	
Cc1cc(C(=O)N2CC3(CCN(C/C=C/c4ccc(F)c(F)c4)CC3)c3cc(Sc4ccc(F)cc4)ccc32)cc(Cl)n1 [Compound 33, (2-chloro-6-methyl-4-pyridyl)-[1′-[(E)-3-(3,4-difluorophenyl)allyl]-5-(4-fluorophenyl)sulfanyl-spiro[indoline-3,4′-piperidine]-1-yl]methanone]	≤ 50 µM	
Cc1cc(C(=O)N2CC3(CCN(C/C=C/c4ccc(Cl)c(Cl)c4)CC3)c3cc(Sc4ccc(F)cc4)ccc32)ccn1 [Compound 25, [1′-[(E)-3-(3,4-dichlorophenyl)allyl]-5-(4-fluorophenyl)sulfanyl-spiro[indoline-3,4′-piperidine]-1-yl]-(2-methyl-4-pyridyl)methanone]	≤ 50 µM	
O=C(c1ccnc(Cl)c1)N1CC2(CCN(C/C=C/c3ccc(F)cc3)CC2)c2cc(Sc3ccc(F)cc3)ccc21 [Compound 35, (2-chloro-4-pyridyl)-[1′-[(E)-3-(4-fluorophenyl)allyl]-5-(4-fluorophenyl)sulfanyl-spiro[indoline-3,4′-piperidine]-1-yl]methanone]	≤ 50 µM	
Cc1ccc(/C=C/CN2CCC3(CC2)CN(C(=O)c2ccnc(Cl)c2)c2ccc(Sc4ccc(F)cc4)cc23)cc1 [Compound 17, (2-chloro-4-pyridyl)-[5-(4-fluorophenyl)sulfanyl-1′-[(E)-3-(p-tolyl)allyl]spiro[indoline-3,4′-piperidine]-1-yl]methanone]	≤ 50 µM	
O=C(c1ccnc(Cl)c1)N1CC2(CCN(C/C=C/c3ccc(Cl)cc3)CC2)c2cc(Sc3ccc(F)cc3)ccc21 [Compound 26, [1′-[(E)-3-(4-chlorophenyl)allyl]-5-(4-fluorophenyl)sulfanyl-spiro[indoline-3,4′-piperidine]-1-yl]-(2-chloro-4-pyridyl)methanone]	≤ 50 µM	
Cc1cc(C(=O)N2CC3(CCN(C/C=C/c4ccc(F)cc4)CC3)c3cc(Sc4ccc(F)cc4)ccc32)cc(Cl)n1 [Compound 36, (2-chloro-6-methyl-4-pyridyl)-[1′-[(E)-3-(4-fluorophenyl)allyl]-5-(4-fluorophenyl)sulfanyl-spiro[indoline-3,4′-piperidine]-1-yl]methanone]	≤ 50 µM	
Cc1cc(C(=O)N2CC3(CCN(C/C=C/c4ccc(Cl)cc4)CC3)c3cc(Sc4ccc(F)cc4)ccc32)cc(Cl)n1 [Compound 27, (2-chloro-6-methyl-4-pyridyl)-[1′-[(E)-3-(4-chlorophenyl)allyl]-5-(4-fluorophenyl)sulfanyl-spiro[indoline-3,4′-piperidine]-1-yl]methanone]	≤ 50 µM	
Cc1ccc(/C=C/CN2CCC3(CC2)CN(C(=O)c2ccnc(C)c2)c2ccc(Sc4ccc(F)cc4)cc23)cc1 [Compound 19, [5-(4-fluorophenyl)sulfanyl-1′-[(E)-3-(p-tolyl)allyl]spiro[indoline-3,4′-piperidine]-1-yl]-(2-methyl-4-pyridyl)methanone]	≤ 50 µM	
O=C(c1ccnc(Cl)c1)N1CC2(CCN(C/C=C/c3ccc(Cl)cc3Cl)CC2)c2cc(Sc3ccc(F)cc3)ccc21 [Compound 29, (2-chloro-4-pyridyl)-[1′-[(E)-3-(2,4-dichlorophenyl)allyl]-5-(4-fluorophenyl)sulfanyl-spiro[indoline-3,4′-piperidine]-1-yl]methanone]	≤ 50 µM	
